The values that follow come from patent US12115152B2, “Pan-RAF kinase inhibitor and use thereof” (HEFEI INSTITUTES OF PHYSICAL SCIENCE, CHINESE ACADEMY OF …, priority 2019, dated 2024).

Where only a bound is given, the exact number is not on record here.

Holding throughout (format): cell-based
In test [1] the test system is human acute leukemia cell NB4 (expressing KRAS-A18D mutant kinase). Put plainly: Effect on proliferation of cancer cells, Cell Titer-Glo, 72 hours. The following applies: NB-4. On the procedure:
(§1) The compounds of the present invention were tested for their effect on growth of cancer cells (Table 2), to further evaluate the compounds herein for their inhibitory effect on proliferation of cancer cells and their selectivity in inhibiting proliferation of cancer cells.
(§2) The above-mentioned BaF3-FL-BRAF-V600E mutant cell line was constructed by the method as follows. The sequence of human full-length BRAF-V600E mutant kinase region was amplified by PCR, inserted into a MSCV-Puro vector (purchased from Clontech), and stably transfected into mouse BaF3 cells by the retroviral method, and the growth factor IL-3 was removed. Eventually, a cell line dependent on a full-length BRAF-V600E protein having various mutation transferred was obtained.
(§3) In the example, solutions of the test compound in DMSO at different concentrations (0.000508 μM, 0.00152 μM, 0.00457 μM, 0.0137 μM, 0.0411 μM, 0.123 μM, 0.370 μM, 1.11 μM, 3.33 μM, 10 μM) was added to the above cells respectively. The cells were incubated for 72 hours. The number of viable cells was detected with a Cell Titer-Glo (Promega, USA) Cell Viability Assay Kit by quantifying the ATP in viable cells. The values of GI50 (unit) of the compounds of the present invention against each of the test cells were determined.

In test [2] the test system is human acute leukemia cell OCI-AML-3 (expressing NRAS-Q61L mutant kinase). The description is as above. The following applies: OCI-AML-3 cells. On the procedure: as §1, §2, §3
Test [3] deals with melanoma cell A375 (expressing BRAF-V600E mutant kinase). Described as above. The following applies: Homo sapiens, A-375. As to the method: as §1
(§4) The cells were incubated for 72 hours. The number of viable cells was detected with a Cell Titer-Glo (Promega, USA) Cell Viability Assay Kit by quantifying the ATP in viable cells. The values of GI50 (unit) of the compounds of the present invention against each of the test cells were determined.

In test [4] the test system is mouse BaF3-FL-BRAF-V600E (stably expressing full-length BRAF-V600E mutant kinase). The description is as above. On the procedure:
as §1, §4

The test system of test [5] is colorectal cancer cell COLO205 (expressing BRAF-V600E mutant kinase). Described as above. The following applies: Homo sapiens, COLO 205. As to the method:
as §1, §4

Test [6] can be described thus: Effect on proliferation of cells, Cell Titer-Glo, 72 hours. The following applies: Mus musculus, BaF3 cells. As to the method: The compounds of the present invention were tested for their effect on growth of cancer cells (Table 2), to further evaluate the compounds herein for their inhibitory effect on proliferation of cancer cells and their selectivity in inhibiting proliferation of cancer cells. […]
as §3

Turning to `Cc1ccc(NC(=O)c2cccc(C(C)(C)C#N)c2)cc1-n1cc(-c2cnccc2OCCCO)cn1` [Example 161, 3-(2-cyanoprop-2-yl)-N-(3-(4-(4-(3-hydorxypropoxy)pyrid-3-yl)-1H-pyrazol-1-yl)-4-methylphenyl)benzamide], the GI50 came to 0.095 µM in test [1]; 0.012 µM in test [2]; 0.014 µM in test [3]; 0.0023 µM in test [4]; 0.055 µM in test [5]; 3.6 µM in test [6].

Take `Cc1ccc(NC(=O)c2cccc(C(F)(F)F)c2)cc1-n1cc(-c2cnccc2OCCCCO)cn1` [Example 166, N-(3-(4-(4-(4-hydroxybutoxy)pyrid-3-yl)-1H-pyrazol-1-yl)-4-methylphenyl)-3-(trifluoromethyl)benzamide]: the GI50 stood at 0.069 µM in test [1]; 0.019 µM in test [2]; 0.077 µM in test [3]; 0.001 µM in test [4]; 0.094 µM in test [5]; 2.6 µM in test [6].

Regarding `Cc1ccc(NC(=O)c2ccc(C)c(C(F)(F)F)c2)cc1-n1cc(-c2cncc(-c3ccncc3)c2)cn1` [Example 7, N-(3-(4-([3,4′-bipyridyl]-5-yl)-1H-pyrazol-1-yl)-4-methylphenyl)-4-methyl-3-(trifluoromethyl)benzamide], the GI50 is 0.086 µM in test [3], 0.012 µM in test [4], 0.15 µM in test [5] and 2.4 µM in test [6].

Regarding `Cc1ccc(NC(=O)c2cccc(C(F)(F)F)c2)cc1-n1cc(-c2cncc(OCC3CCOC3)c2)cn1` (stereo not shown) [Example 66, N-(4-methyl-3-(4-(5-((tetrahydrofuran-3-yl)methoxy)pyrid-3-yl)-1H-pyrazol-1-yl)phenyl)-3-(trifluoromethyl)benzamide], the GI50 in test [3] stood at 0.071 µM; in test [4] it was 0.018 µM; in test [5], 0.23 µM; in test [6], 3 µM.

`Cc1ccc(NC(=O)c2cccc(C(F)(F)F)c2)cc1-n1cc(-c2cnccc2OC2COC2)cn1` [Example 82, N-(4-methyl-3-(4-(4-(oxetan-3-yloxy)pyrid-3-yl)-1H-pyrazol-1-yl)phenyl)-3-(trifluoromethyl)benzamide]: the 50% growth inhibitory concentration (GI50) turned out to be 0.097 µM in test [3], 0.004 µM in test [4], 0.083 µM in test [5] and 3.2 µM in test [6].

Take `Cc1ccc(NC(=O)c2cccc(C(C)(C)C#N)c2)cc1-n1cc(-c2cnccc2OCCCCO)cn1` [Example 165, 3-(2-cyanoprop-2-yl)-N-(3-(4-(4-(4-hydroxybutoxy)pyrid-3-yl)-1H-pyrazol-1-yl)-4-methylphenyl)benzamide]: the GI50 in test [1] was 0.075 µM; in test [2], 0.014 µM; in test [3] it was 0.04 µM; in test [4], less than 0.0003 µM; in test [5], 0.19 µM; in test [6] it was 1.8 µM.

For the compound `Cc1ccc(NC(=O)c2cccc(C(C)(C)C#N)c2)cc1-n1cc(-c2cncc(OCC3CCOC3)c2)cn1` (stereo not shown) [Example 65, 3-(2-cyanoprop-2-yl)-N-(4-methyl-3-(4-(5-((tetrahydrofuran-3-yl)methoxy)pyrid-3-yl)-1H-pyrazol-1-yl)phenyl)benzamide], the concentration for 50% growth inhibition (GI50) in test [3] was determined as 0.016 µM; in test [4], 0.0013 µM; in test [5], 0.035 µM; in test [6] it was 1.7 µM.

Take `Cc1ccc(NC(=O)c2cccc(C(C)(C)C#N)c2)cc1-n1cc(-c2cncc(-c3ccncc3)c2)cn1` [Example 5, N-(3-(4-([3,4′-bipyridyl]-5-yl)-1H-pyrazol-1-yl)-4-methylphenyl)-3-(2-cyanoprop-2-yl)benzamide]: the GI50 in test [3] was 0.019 µM; in test [4], 0.0019 µM; in test [5], 0.017 µM; in test [6], 0.51 µM.

Take `Cc1ccc(NC(=O)c2cccc(C(C)(C)C#N)c2)cc1-n1cc(-c2cnccc2OCC2CCOCC2)cn1` [Example 72, 3-(2-cyanoprop-2-yl)-N-(4-methyl-3-(4-(4-((tetrahydro-2H-pyran-4-yl)methoxy)pyrid-3-yl)-1H-pyrazol-1-yl)phenyl)benzamide]: the GI50 came out at 0.034 µM in test [3], 0.0056 µM in test [4], 0.1 µM in test [5] and 5.8 µM in test [6].

On to `Cc1ccc(NC(=O)c2ccc(CN3CCN(C)CC3)c(C(F)(F)F)c2)cc1-n1cc(-c2cncc(-c3ccncc3)c2)cn1` [Example 8, N-(3-(4-([3,4′-bipyridyl]-5-yl)-1H-pyrazol-1-yl)-4-methylphenyl)-4-((4-methylpiperazin-1-yl)methyl)-3-(trifluoromethyl)benzamide], for which the concentration for 50% growth inhibition (GI50) in test [3] came to 0.027 µM; in test [4], 0.01 µM; in test [5] it was 0.028 µM; in test [6], 0.31 µM.

As for `Cc1ccc(NC(=O)c2cccc(C(C)(C)C#N)c2)cc1-n1cc(-c2cncc(-c3cccnc3)c2)cn1` [Example 3, N-(3-(4-([3,3′-bipyridyl]-5-yl)-1H-pyrazol-1-yl)-4-methylphenyl)-3-(2-cyanoprop-2-yl)benzamide], the GI50 is 0.021 µM in test [3], less than 0.0003 µM in test [4], 0.01 µM in test [5] and 1 µM in test [6].

With `Cc1ccc(NC(=O)c2cccc(C(C)C#N)c2)cc1-n1cc(-c2cncc(-c3ccncc3)c2)cn1` (stereo not shown) [Example 6, N-(3-(4-([3,4′-bipyridyl]-5-yl)-1H-pyrazol-1-yl)-4-methylphenyl)-3-(1-cyanoethyl)benzamide], the concentration for 50% growth inhibition (GI50) came out at 0.057 µM in test [3], 0.0075 µM in test [4], 0.053 µM in test [5] and 0.78 µM in test [6].

Consider `Cc1ccc(NC(=O)c2ccc(CN3CCN(C)CC3)c(C(F)(F)F)c2)cc1-n1cc(-c2cncc(N3CCOCC3)c2)cn1` [Example 12, N-(4-methyl-3-(4-(5-morpholinopyrid-3-yl)-1H-pyrazol-1-yl)phenyl)-4-((4-methylpiperazin-1-yl)methyl)-3-(trifluoromethyl)benzamide], for which the GI50 stood at 0.097 µM in test [3], 0.0074 µM in test [4], 0.045 µM in test [5] and 0.21 µM in test [6].

In the case of `Cc1ccc(NC(=O)c2cccc(C(C)(C)C#N)c2)cc1-n1cc(-c2cncc(OCCCN3CCOCC3)c2)cn1` [Example 47, 3-(2-cyanoprop-2-yl)-N-(4-methyl-3-(4-(5-(3-morpholinopropoxy)pyrid-3-yl)-1H-pyrazol-1-yl)phenyl)benzamide], the GI50 in test [3] worked out at 0.017 µM; in test [4], 0.0013 µM; in test [5] it was 0.015 µM; in test [6], 0.6 µM.

Consider `Cc1ccc(NC(=O)c2cccc(Cl)c2)cc1-n1cc(-c2cccnc2)cn1` [compound 2, 3-chloro-N-(4-methyl-3-(4-(pyrid-3-yl)-1H-pyrazol-1-yl)phenyl)benzamide, reference compound], for which the concentration for 50% growth inhibition (GI50) amounted to 1.6 µM in test [3], 0.24 µM in test [4], 3.3 µM in test [5] and 9.3 µM in test [6].

Regarding `Cc1ccc(NC(=O)c2cccc(C(C)(C)C#N)c2)cc1-n1cc(-c2cnccc2OC2COC2)cn1` [Example 79, 3-(2-cyanoprop-2-yl)-N-(4-methyl-3-(4-(4-(oxetan-3-yloxy)pyrid-3-yl)-1H-pyrazol-1-yl)phenyl)benzamide], the GI50 is 0.061 µM in test [3], less than 0.0003 µM in test [4], 0.057 µM in test [5] and 4.8 µM in test [6].

Turning to `Cc1ccc(NC(=O)Cc2cccc(C(F)(F)F)c2)cc1-n1cc(-c2cncc(OCCCN3CCOCC3)c2)cn1` [Example 49, N-(4-methyl-3-(4-(5-(3-morpholinopropoxy)pyrid-3-yl)-1H-pyrazol-1-yl)phenyl)-2-(3-(trifluoromethyl)phenyl)acetamide], the concentration for 50% growth inhibition (GI50) was found to be 0.041 µM in test [3], 0.0072 µM in test [4], 0.052 µM in test [5] and 0.5 µM in test [6].

With `Cc1ccc(NC(=O)c2cccc(C(F)(F)F)c2)cc1-n1cc(-c2cncc(OCCCN3CCOCC3)c2)cn1` [Example 48, N-(4-methyl-3-(4-(5-(3-morpholinopropoxy)pyrid-3-yl)-1H-pyrazol-1-yl)phenyl)-3-(trifluoromethyl)benzamide], the GI50 in test [3] was determined as 0.014 µM; in test [4], 0.0041 µM; in test [5], 0.032 µM; in test [6] it was 0.52 µM.

As for `Cc1ccc(NC(=O)c2cccc(C(C)(C)C#N)c2)cc1-n1cc(-c2cnccc2OC2CCOCC2)cn1` [Example 56, 3-(2-cyanoprop-2-yl)-N-(4-methyl-3-(4-(4-((tetrahydro-2H-pyran-4-yl)oxy)pyrid-3-yl)-1H-pyrazol-1-yl)phenyl)benzamide], the GI50 in test [3] is 0.077 µM; in test [4], less than 0.0003 µM; in test [5], 0.119 µM; in test [6], 4.1 µM.
